Results reported in US6420313B1, “Thienylalkylamino-1,3,5-triazines and the use thereof as herbicides” (Bayer Aktiengesellschaft, priority 1998, dated 2002).

Columns and labels:
Format in all cases: in vivo
Digitaria = assay: Pre-emergence test/greenhouse, Digitaria; conditions: 500 g of ai./ha, after three weeks
Protocol: (§1) Solvent: 5 parts by weight of acetone
(§2) Emulsifier: 1 part by weight of alkylaryl polyglycol ether
(§3) To produce a suitable preparation of active compound, 1 part by weight of active compound is mixed with the stated amount of solvent, the stated amount of emulsifier is added and the concentrate is diluted with water to the desired concentration.
(§4) Seeds of the test plants are sown in normal soil. After about 24 hours, the soil is sprayed with the preparation of active compound such that the particular amount of active compound desired is applied per unit area. The concentration of the spray liquor is chosen so that the particular amount of active compound desired is applied in 1000 liters of water per hectare.
(§5) After three weeks, the degree of damage to the plants is rated in % damage in comparison to the development of the untreated control.
(§6) 0%=no effect (like untreated control)

Chenopodium = assay: Pre-emergence test/greenhouse, Chenopodium; conditions: 500 g of ai./ha, after three weeks
Protocol: as §1, §2, §3, §4, §5, §6

Solanum = assay: Pre-emergence test/greenhouse, Solanum; conditions: 500 g of ai./ha, after three weeks
Protocol: as §1, §2, §3, §4, §5, §6

Veronica = assay: Pre-emergence test/greenhouse, Veronica; conditions: 504 h, 500 g of ai./ha, after three weeks, read-out: degree of damage, Veronica
Protocol: as §1, §2, §3, §4, §5, §6

Viola = assay: Pre-emergence test/greenhouse, Viola; conditions: after three weeks
Protocol: as §1, §2, §3, §4, §5, §6

barley = assay: Pre-emergence test/greenhouse, barley; conditions: 500 g of ai./ha, after three weeks
Protocol: as §1, §2, §3, §4, §5, §6

Setaria = assay: Pre-emergence test/greenhouse, Setaria; conditions: 500 g of ai./ha, after three weeks
Protocol: as §1, §2, §3, §4, §5, §6

Cyperus = assay: Pre-emergence test/greenhouse, Cyperus; conditions: 500 g of ai./ha, after three weeks
Protocol: as §1, §2, §3, §4, §5, §6

Matricaria = assay: Pre-emergence test/greenhouse, Matricaria; conditions: 500 g of ai./ha, after three weeks
Protocol: as §1, §2, §3, §4, §5, §6

cotton = assay: Pre-emergence test/greenhouse, cotton; conditions: 500 g of ai./ha, after three weeks
Protocol: as §1, §2, §3, §4, §5, §6

Datura = assay: Pre-emergence test/greenhouse, Datura; conditions: 500 g of ai./ha, after three weeks
Protocol: as §1, §2, §3, §4, §5, §6

soya = assay: Pre-emergence test/greenhouse, soya; conditions: 500 g of ai./ha, after three weeks
Protocol: as §1, §2, §3, §4, §5, §6

Lolium = assay: Pre-emergence test/greenhouse, Lolium; conditions: 500 g of ai./ha, after three weeks
Protocol: as §1, §2, §3, §4, §5, §6

Structure (SMILES): CCC(CCc1cc(Br)cs1)Nc1nc(NC(C)=O)nc(C(C)(C)F)n1 (stereo not drawn) [drawing 239]
- degree of damage, Digitaria (Digitaria): 100%
- degree of damage, Chenopodium (Chenopodium): 100%
- degree of damage, Solanum (Solanum): 100%
- pest or weed control at 500 g/ha (Veronica): 100%

Structure (SMILES): CCC(CCc1sccc1Br)Nc1nc(N)nc(C(C)(C)F)n1 (stereo not drawn) [drawing 240]
- pest or weed control at 500 g/ha (Veronica): 100%

Structure (SMILES): CCC(CCc1sccc1Br)Nc1nc(N)nc(C(C)F)n1 (stereo not drawn) [drawing 241]
- degree of damage, Digitaria (Digitaria): 100%
- degree of damage, Solanum (Solanum): 100%
- pest or weed control at 500 g/ha (Veronica): 100%

Structure (SMILES): CCC(CCc1sccc1Br)Nc1nc(NC(C)=O)nc(C(C)F)n1 (stereo not drawn) [drawing 242]
- degree of damage, Solanum (Solanum): 100%
- pest or weed control at 500 g/ha (Veronica): 100%

Structure (SMILES): CCC(CCc1cc(C)sc1C)Nc1nc(N)nc(C(C)F)n1 (stereo not drawn) [drawing 243]
- degree of damage, Digitaria (Digitaria): 100%
- degree of damage, Solanum (Solanum): 100%
- pest or weed control at 500 g/ha (Veronica): 100%

Structure (SMILES): CCC(CCc1cc(C)sc1C)Nc1nc(NC(C)=O)nc(C(C)(C)F)n1 (stereo not drawn) [drawing 244]
- pest or weed control at 500 g/ha (Veronica): 100%

Structure (SMILES): CC(CCCc1cccs1)Nc1nc(N)nc(C(C)(C)F)n1 (stereo not drawn) [drawing 245]
- degree of damage, Viola (Viola; 1000 g of ai./ha): 100%

Structure (SMILES): CCC(CCc1ccc(Br)s1)Nc1nc(N)nc(C(C)F)n1 (stereo not drawn) [drawing 246]
- degree of damage, Viola (Viola; 500 g of ai./ha): 100%

Structure (SMILES): CCC(CCc1ccc(Br)s1)Nc1nc(N)nc(C(C)(C)F)n1 (stereo not drawn) [drawing 247]
- degree of damage, Viola (Viola; 500 g of ai./ha): 100%

Structure (SMILES): CCC(CCc1cc(Br)cs1)Nc1nc(NC(C)=O)nc(C(C)F)n1 (stereo not drawn) [drawing 248]
- degree of damage, Viola (Viola; 500 g of ai./ha): 100%
- degree of damage, barley (barley): 0%
- degree of damage, Setaria (Setaria): 95%

Structure (SMILES): CCC(CCc1cc(Br)cs1)Nc1nc(NC(C)=O)nc(C(C)(C)F)n1 (stereo not drawn) [drawing 249]
- degree of damage, Viola (Viola; 500 g of ai./ha): 100%
- degree of damage, Setaria (Setaria): 95%

Structure (SMILES): CCC(CCc1sccc1Br)Nc1nc(N)nc(C(C)(C)F)n1 (stereo not drawn) [drawing 250]
- degree of damage, Cyperus (Cyperus): 100%
- degree of damage, Matricaria (Matricaria): 100%

Structure (SMILES): CCC(CCc1sccc1Br)Nc1nc(NC(C)=O)nc(C(C)F)n1 (stereo not drawn) [drawing 252]
- degree of damage, Matricaria (Matricaria): 100%

Structure (SMILES): CCC(CCc1cc(C)sc1C)Nc1nc(N)nc(C(C)F)n1 (stereo not drawn) [drawing 253]
- degree of damage, Viola (Viola; 500 g of ai./ha): 100%

Structure (SMILES): CCC(CCc1cc(C)sc1C)Nc1nc(NC(C)=O)nc(C(C)(C)F)n1 (stereo not drawn) [drawing 254]
- degree of damage, Viola (Viola; 500 g of ai./ha): 100%
- degree of damage, Matricaria (Matricaria): 95%

Structure (SMILES): CCC(CCc1sccc1Br)Nc1nc(N)nc(C(C)F)n1 (stereo not drawn) [drawing 261]
- degree of damage, cotton (cotton): 0%
- degree of damage, Datura (Datura): 100%

Structure (SMILES): CCC(CCc1sccc1Br)Nc1nc(NC(C)=O)nc(C(C)F)n1 (stereo not drawn) [drawing 262]
- degree of damage, cotton (cotton): 0%

Structure (SMILES): CCC(CCc1cc(C)sc1C)Nc1nc(N)nc(C(C)F)n1 (stereo not drawn) [drawing 263]
- degree of damage, soya (soya): 0%

Structure (SMILES): CCC(CCc1cc(C)sc1C)Nc1nc(NC(C)=O)nc(C(C)(C)F)n1 (stereo not drawn) [drawing 264]
- degree of damage, Lolium (Lolium): 90%
